{"source": "patent US20250109127A1", "about": "“METHODS OF USE OF PHENOXYPROPYLAMINE COMPOUNDS TO TREAT DEPRESSION” (Minerva Neurosciences, Inc., priority 2013, published 2025)", "tested_on": "norepinephrin release in the rat prefrontal cortex", "assay": "Microdialysis: norepinephrine release in prefrontal cortex after I.P. administration", "type": "in vivo", "conditions": "for NOREPINEPHRIN in dialysate, MEAN / NOREPINEPHRIN in dialysate, individual animals: Citalopram 10 mg/kg I.P.", "experimental": "The aim of the study was to evaluate, using microdialysis, the effects of an intraperitoneal (I.P.) administration in rats of three different doses of SON-117 on dopamine and its metabolites, serotonin and its metabolite (5-HIAA), and norepinephrine levels in prefrontal cortex.\nThirty-two adult male Wistar rats were used for the whole study (4 groups of eight animals planned for the study, Table 1).\nSurgery was performed on rats weighing about 300 g at the beginning of the experiments. Rats were anaesthetized with Ketamine (50 mg/kg) & Xylazine (15 mg/kg) by intramuscular administration. The animals were placed in a stereotaxic apparatus in the flat-skull position at a constant setting of −3.3 mm between ear bars and the incisor bar. The animals were treated with a local anesthesic (xylocaine 1%, Astra Zeneca) and an analgesic (Temgesic, from Schering Plough, 0.05 mg/kg, s.c.). A rostrocaudal midline incision was made with a lancet to expose the dorsal skull surface. The “stereotaxic zero” was defined by the Bregma in accordance with Paxinos and Watson's atlas (1986). A hole was drilled in the skull with a drill and the meninges were pierced with a sterile needle to implant a CMA12 guide cannula which later received the dialysis probe.\nCoordinates used for implanting guide cannula in prefrontal cortex from Bregma were anteroposterior 3.7 mm, mediolateral 0.8 mm, and dorsoventral −2 mm (top of the probe was at −5 mm). The guide cannula was fixed to the skull with two stainless steel screws (1.88 mm outside diameter) anchored. An application of dental cement was added. A plastic collar allowed each animal to be tethered to a Swivel assembly of the CMA 120 awake animal system. Following surgery, rats were kept in individual cages and allowed to recover for a minimum of 3-5 days before the experimentation. The rats were handled and put in plastic bowl for 10 min at least every day to habituate the animals to their new environment for the dialysis. An I.P. administration with saline was also performed every day.\nDialysis probes (CMA12/3 mm, membrane, 20 kD cut-off, Carnegie Medicine, Stockholm, Sweden), were carefully washed before inserting into the guide cannula. The wash was performed with the artificial cerebrospinal fluid (aCSF) medium (NaCl 147 mM, KCl 2.7 mM, CaCl2 1.2 mM, MgCl2 0.85 mM) at room temperature. The dialysis system was then equilibrated at 20° C. at a perfusion rate of 1 μl/min with a Carnegie pump (CMA100). All catheters (FEP tubing, internal volume of 1.2 μl/10 cm, and tubing adaptors) used for microdialysis were treated in the same conditions.\nThe probes duly prepared were inserted into the guide cannula and the CMA120 Swivel assembly secured to the animal using a plastic collar. Flow through the dialysis probe with aCSF was maintained at a rate of 1 μl/min during the whole experimentation. The first four fractions (corresponding to 2 hours) were discarded to avoid the effects of parenchymal disturbance and to ensure that an approximate steady-state level was reached. Fractions were then collected over a period of 8.5 h during which time the animals remained quiet. The dialysates were automatically collected with an autosampler (microfraction collector CMA 140, Carnegie Medicin) and stored at −80° C. until analysis. […] Perfusion was then maintained for 7 hours with aCSF. The dialysates (30 μl) were collected into 300 μl vials, transferred into dry ice and then kept frozen (−80° C.) until analysis. Frozen samples were shipped to a partner for analysis. At the end of the microdialysis study, a PBS with colored ink was perfused through the probe in order to visualize the dialyzed area.\nCatecholamine assay: Concentrations of dopamine, DOPAC, HVA, 5-HIAA, 5-HT, and norepinephrin were determined for each sample by HPLC coupled with electrochemical detection. […]", "note": "Where “and” joins values, the source holds several entries; their conditions need not be identical. Equal entries are not always repeated."}
{"smiles": "CN(C)CCCC1(c2ccc(F)cc2)OCc2cc(C#N)ccc21", "note": "(stereo not shown) [Citalopram, citalopram, reference compound]", "values": [{"measurement": "NOREPINEPHRIN in dialysate, MEAN", "setting": "T0-T30 min", "value": "82.58 % of respective basal"}, {"measurement": "NOREPINEPHRIN in dialysate, MEAN", "setting": "T30-T1 h", "value": "78.71 % of respective basal"}, {"measurement": "NOREPINEPHRIN in dialysate, individual animals", "setting": "T30-T1 h", "value": "63.38 % of respective basal and 110.18 % of respective basal and 80.74 % of respective basal and 67.88 % of respective basal and 82.89 % of respective basal and 87.03 % of respective basal and 121.77 % of respective basal and 15.77 % of respective basal"}, {"measurement": "NOREPINEPHRIN in dialysate, MEAN", "setting": "T1 h 30-T2 h", "value": "79.06 % of respective basal"}, {"measurement": "NOREPINEPHRIN in dialysate, individual animals", "setting": "T1 h 30-T2 h", "value": "61.03 % of respective basal and 124.09 % of respective basal and 72.92 % of respective basal and 60.40 % of respective basal and 82.59 % of respective basal and 82.64 % of respective basal and 134.98 % of respective basal and 13.8 % of respective basal"}, {"measurement": "NOREPINEPHRIN in dialysate, MEAN", "setting": "T1 h-T1 h 30", "value": "79.69 % of respective basal"}, {"measurement": "NOREPINEPHRIN in dialysate, individual animals", "setting": "T1 h-T1 h 30", "value": "76.17 % of respective basal and 109.19 % of respective basal and 82.90 % of respective basal and 61.59 % of respective basal and 83.93 % of respective basal and 87.19 % of respective basal and 123.99 % of respective basal and 12.53 % of respective basal"}, {"measurement": "NOREPINEPHRIN in dialysate, MEAN", "setting": "T2 h 30-T3 h", "value": "71.56 % of respective basal"}, {"measurement": "NOREPINEPHRIN in dialysate, individual animals", "setting": "T2 h 30-T3 h", "value": "59.14 % of respective basal and 93.64 % of respective basal and 64.43 % of respective basal and 55.24 % of respective basal and 91.72 % of respective basal and 74.05 % of respective basal and 121.10 % of respective basal and 13.15 % of respective basal"}, {"measurement": "NOREPINEPHRIN in dialysate, MEAN", "setting": "T2 h-T2 h 30", "value": "76.38 % of respective basal"}, {"measurement": "NOREPINEPHRIN in dialysate, individual animals", "setting": "T2 h-T2 h 30", "value": "73.97 % of respective basal and 105.30 % of respective basal and 76.17 % of respective basal and 58.36 % of respective basal and 86.59 % of respective basal and 74.01 % of respective basal and 122.28 % of respective basal and 14.33 % of respective basal"}, {"measurement": "NOREPINEPHRIN in dialysate, MEAN", "setting": "T3 h 30-T4 h", "value": "75.03 % of respective basal"}, {"measurement": "NOREPINEPHRIN in dialysate, individual animals", "setting": "T3 h 30-T4 h", "value": "60.36 % of respective basal and 105.62 % of respective basal and 79.83 % of respective basal and 62.35 % of respective basal and 87.18 % of respective basal and 69.08 % of respective basal and 122.62 % of respective basal and 13.22 % of respective basal"}, {"measurement": "NOREPINEPHRIN in dialysate, MEAN", "setting": "T3 h-T3 h 30", "value": "71.85 % of respective basal"}, {"measurement": "NOREPINEPHRIN in dialysate, individual animals", "setting": "T3 h-T3 h 30", "value": "59.65 % of respective basal and 96.31 % of respective basal and 77.47 % of respective basal and 56.34 % of respective basal and 86.44 % of respective basal and 66.43 % of respective basal and 119.71 % of respective basal and 12.42 % of respective basal"}, {"measurement": "NOREPINEPHRIN in dialysate, MEAN", "setting": "T4 h 30-T5 h", "value": "79.44 % of respective basal"}, {"measurement": "NOREPINEPHRIN in dialysate, individual animals", "setting": "T4 h 30-T5 h", "value": "76.82 % of respective basal and 116.23 % of respective basal and 73.73 % of respective basal and 66.68 % of respective basal and 84.54 % of respective basal and 70.81 % of respective basal and 127.26 % of respective basal and 19.47 % of respective basal"}, {"measurement": "NOREPINEPHRIN in dialysate, MEAN", "setting": "T4 h-T4 h 30", "value": "79.54 % of respective basal"}, {"measurement": "NOREPINEPHRIN in dialysate, individual animals", "setting": "T4 h-T4 h 30", "value": "77.6 % of respective basal and 102.09 % of respective basal and 77.48 % of respective basal and 63.90 % of respective basal and 92.86 % of respective basal and 82.33 % of respective basal and 128.7 % of respective basal and 11.39 % of respective basal"}, {"measurement": "NOREPINEPHRIN in dialysate, MEAN", "setting": "T5 h 30-T6 h", "value": "81.93 % of respective basal"}, {"measurement": "NOREPINEPHRIN in dialysate, individual animals", "setting": "T5 h 30-T6 h", "value": "48.16 % of respective basal and 103.46 % of respective basal and 105.10 % of respective basal and 86.55 % of respective basal and 85.91 % of respective basal and 79.07 % of respective basal and 122.12 % of respective basal and 25.1 % of respective basal"}, {"measurement": "NOREPINEPHRIN in dialysate, MEAN", "setting": "T5 h-T5 h 30", "value": "77.65 % of respective basal"}, {"measurement": "NOREPINEPHRIN in dialysate, individual animals", "setting": "T5 h-T5 h 30", "value": "88.27 % of respective basal and 76.54 % of respective basal and 75.84 % of respective basal and 77.15 % of respective basal and 75.13 % of respective basal and 134.83 % of respective basal and 15.76 % of respective basal"}, {"measurement": "NOREPINEPHRIN in dialysate, MEAN", "setting": "T6 h 30-T7 h", "value": "79.84 % of respective basal"}, {"measurement": "NOREPINEPHRIN in dialysate, individual animals", "setting": "T6 h 30-T7 h", "value": "52.47 % of respective basal and 107.42 % of respective basal and 80.22 % of respective basal and 89.35 % of respective basal and 83.18 % of respective basal"}, {"measurement": "NOREPINEPHRIN in dialysate, MEAN", "setting": "T6 h-T6 h 30", "value": "78.38 % of respective basal"}, {"measurement": "NOREPINEPHRIN in dialysate, individual animals", "setting": "T6 h-T6 h 30", "value": "51.36 % of respective basal and 106.33 % of respective basal and 79.91 % of respective basal and 87.03 % of respective basal and 82.07 % of respective basal and 79.77 % of respective basal and 119.62 % of respective basal and 20.91 % of respective basal"}, {"measurement": "NOREPINEPHRIN in dialysate, MEAN", "setting": "T-30 min-T0 (pre-dose)", "value": "95.22 % of respective basal"}, {"measurement": "NOREPINEPHRIN in dialysate, MEAN", "setting": "T-1 h 30-T-1 h (pre-dose)", "value": "92.87 % of respective basal"}, {"measurement": "NOREPINEPHRIN in dialysate, MEAN", "setting": "T-1 h-T-30 min (pre-dose)", "value": "109.53 % of respective basal"}, {"measurement": "NE concentration in prefrontal cortex, significant and stable slight decrease", "setting": "citalopram 10 mg/kg I.P., from 0.5 h to 7 h after administration", "value": 72, "unit": "%"}]}
